Data as given in PMC3923778 (PLoS Currents, 2014).

Legend:
[1] = Microdialysis PK: SCH-51866 in striatal extracellular dialysate; type: in vivo, mouse; conditions: single oral dose, male R6/2, 7-8 weeks
Description: Microdialysis PK/PD studies were conducted at Brains Online, Inc. (San Francisco, CA, USA) Male R6/2 (CBA/C57Bl/6 strain, CAG 120) mice aged 7-8 weeks (20 - 30 g; The Jackson Laboratory, USA) were used for the experiments. The animals were group housed in plastic cages (3-4 animals / cage) and had access to food and water ad libitum. Experiments were conducted in accordance with the declarations of Helsinki and were approved by the Institutional Animal Care and Use Committee of the University of California, San-Francisco. […] Mice were anesthetized using isoflurane (2%, 800 mL/min O2). Bupivacain/epinephrine was used for local anesthesia. Carprophen was used peri-/post-operative as analgesia. The animals were placed in a stereotaxic frame (Kopf instruments, USA), and microdialysis probes were inserted into the striatum. […] After surgery animals were kept individually in cages and provided food and water ad libitum. Animals were fasted the night before the experiment. Experiments were performed one day after surgery. […] Treatment effects were evaluated among different drug concentrations and also compared to baseline, using two-way ANOVA for repeated measurements followed by Student-Newman-Keuls post-hoc test. […] Pharmacodynamic parameters were calculated using Phoenix™ WinNonlin® Pro Node initial (Pharsight Corporation, Mountain View, CA, USA).

[2] = tested on: R6/2 mice; assay: Open Field Test; type: in vivo, mouse; set-up: key to Open Field Total Distance: direction of significant change vs Vehicle-treated R6/2 mice / Open Field Center Distance: direction of significant change vs Vehicle-treated R6/2 mice: ▲: significant enhancement compared to Vehicle-treated R6/2 mice (One-way ANOVA, Dunnett’s post-hoc); ▼: significant impairment compared to Vehicle-treated R6/2 mice (One-way ANOVA, Dunnett’s post-hoc)
Description: Motor function testing including open field and rear climbing tests were commenced at 4 weeks of age and continued at weeks 6, 8 and 12, for grip strength test at age weeks 4 and 12 and for rotarod at age weeks 4, 6 and 8. Compound treatment was started at 4 weeks of age after the baseline behavioral tests.
Open field test was performed at age weeks 4, 6, 8 and 12. The mice were tested on Mondays at approximately 10-30 lux of red light. The mice were brought to the experimental room for at least 1 h acclimation to the experimental room conditions prior to testing. Activity chambers (Med Associates Inc., St Albans, VT; 27 x 27 x 20.3 cm) are equipped with IR beams. Mice were placed in the center of the chamber and their behavior was recorded for 30 min in 5-minute bins. Quantitative analysis was performed on the following five dependent measures: total locomotion, locomotion in the center of the open field, rearing rate in the center, total rearing frequency and velocity.
All values are presented as mean ± Standard Error of Mean (SEM), and differences are considered to be statistically significant at the p < 0.05 level. Statistical analysis was performed using StatsDirect statistical software. Differences between group means were analyzed by 1-way-ANOVA followed by Dunnett’s test (comparison to the control (=vehicle treated TG mice) group). The acquisition of the Cued two-choice swim test was analyzed using Fisher’s exact test.

[3] = Age Week 4, 10 mg/kg p.o., BID, ANOVA
[4] = Age Week 4, 30 mg/kg p.o., BID, ANOVA
[5] = Age Week 6, 10 mg/kg p.o., BID, ANOVA
[6] = Age Week 6, 30 mg/kg p.o., BID, ANOVA
[7] = Age Week 8, 10 mg/kg p.o., BID, ANOVA
[8] = Age Week 8, 30 mg/kg p.o., BID, ANOVA
[9] = Age Week 12, 10 mg/kg p.o., BID
[10] = Age Week 12, 10 mg/kg p.o., BID, ANOVA
[11] = Age Week 12, 30 mg/kg p.o., BID
[12] = Age Week 12, 30 mg/kg p.o., BID, ANOVA

## CN1C(=O)c2nc(Cc3ccc(C(F)(F)F)cc3)[nH]c2N2C1=N[C@H]1CCC[C@H]12 [SCH-51866, (+)-cis-5,6a,7,8,9,9a-hexahydro-2-[4-[trifluro-methyl]phenylmethyl]-5-methyl-cylopent[4,5]imidazo [2,1-b]purin-4(3H)one]
[1]
  SCH-51866 in brain extracellular fluid: dose-dependent accumulation
[2]; [3]
  Open Field Average Velocity: p vs Vehicle-treated R6/2 mice: ANOVA: p=0.461
  Open Field Center Distance: p vs Vehicle-treated R6/2 mice: ANOVA: p=0.701
  Open Field Rearing Rate in Center: p vs Vehicle-treated R6/2 mice: ANOVA: p=0.341
  Open Field Total Distance: p vs Vehicle-treated R6/2 mice: ANOVA: p=0.792
  Open Field Total Rearing Frequency: p vs Vehicle-treated R6/2 mice: ANOVA: p=0.542
[2]; [4]
  Open Field Average Velocity: p vs Vehicle-treated R6/2 mice: ANOVA: p=0.461
  Open Field Center Distance: p vs Vehicle-treated R6/2 mice: ANOVA: p=0.701
  Open Field Rearing Rate in Center: p vs Vehicle-treated R6/2 mice: ANOVA: p=0.341
  Open Field Total Distance: p vs Vehicle-treated R6/2 mice: ANOVA: p=0.792
  Open Field Total Rearing Frequency: p vs Vehicle-treated R6/2 mice: ANOVA: p=0.542
[2]; [5]
  Open Field Average Velocity: p vs Vehicle-treated R6/2 mice: ANOVA: p=0.686
  Open Field Center Distance: p vs Vehicle-treated R6/2 mice: ANOVA: p=0.305
  Open Field Rearing Rate in Center: p vs Vehicle-treated R6/2 mice: ANOVA: p=0.594
  Open Field Total Distance: p vs Vehicle-treated R6/2 mice: ANOVA: p=0.101
  Open Field Total Rearing Frequency: p vs Vehicle-treated R6/2 mice: ANOVA: p=0.639
[2]; [6]
  Open Field Average Velocity: p vs Vehicle-treated R6/2 mice: ANOVA: p=0.686
  Open Field Center Distance: p vs Vehicle-treated R6/2 mice: ANOVA: p=0.305
  Open Field Rearing Rate in Center: p vs Vehicle-treated R6/2 mice: ANOVA: p=0.594
  Open Field Total Distance: p vs Vehicle-treated R6/2 mice: ANOVA: p=0.101
  Open Field Total Rearing Frequency: p vs Vehicle-treated R6/2 mice: ANOVA: p=0.639
[2]; [7]
  Open Field Average Velocity: p vs Vehicle-treated R6/2 mice: ANOVA: p=0.138
  Open Field Center Distance: p vs Vehicle-treated R6/2 mice: ANOVA: p=0.693
  Open Field Rearing Rate in Center: p vs Vehicle-treated R6/2 mice: ANOVA: p=0.519
  Open Field Total Distance: p vs Vehicle-treated R6/2 mice: ANOVA: p=0.333
  Open Field Total Rearing Frequency: p vs Vehicle-treated R6/2 mice: ANOVA: p=0.395
[2]; [8]
  Open Field Average Velocity: p vs Vehicle-treated R6/2 mice: ANOVA: p=0.138
  Open Field Center Distance: p vs Vehicle-treated R6/2 mice: ANOVA: p=0.693
  Open Field Rearing Rate in Center: p vs Vehicle-treated R6/2 mice: ANOVA: p=0.519
  Open Field Total Distance: p vs Vehicle-treated R6/2 mice: ANOVA: p=0.333
  Open Field Total Rearing Frequency: p vs Vehicle-treated R6/2 mice: ANOVA: p=0.395
[2]; [9]
  Open Field Center Distance: p vs Vehicle-treated R6/2 mice: p=0.112
  Open Field Total Distance: p vs Vehicle-treated R6/2 mice: p=0.454
[2]; [10]
  Open Field Average Velocity: p vs Vehicle-treated R6/2 mice: ANOVA: p=0.197
  Open Field Rearing Rate in Center: p vs Vehicle-treated R6/2 mice: ANOVA: p=0.423
  Open Field Total Rearing Frequency: p vs Vehicle-treated R6/2 mice: ANOVA: p=0.703
[2]; [11]
  Open Field Center Distance: direction of significant change vs Vehicle-treated R6/2 mice: ▼
  Open Field Center Distance: p vs Vehicle-treated R6/2 mice: 0.012
  Open Field Total Distance: direction of significant change vs Vehicle-treated R6/2 mice: ▼
  Open Field Total Distance: p vs Vehicle-treated R6/2 mice: 0.016
[2]; [12]
  Open Field Average Velocity: p vs Vehicle-treated R6/2 mice: ANOVA: p=0.197
  Open Field Rearing Rate in Center: p vs Vehicle-treated R6/2 mice: ANOVA: p=0.423
  Open Field Total Rearing Frequency: p vs Vehicle-treated R6/2 mice: ANOVA: p=0.703
[2]; chronic administration in R6/2 mice
  Open field total distance traveled, distance in center, total rear frequency, average velocity, effect in words: no improvement
[2]; highest dose group, 12 weeks of age
  performance in open field evaluation, effect in words: modest but significant worsening of performance
